Data from ChEMBL document CHEMBL1132908, “Synthesis and activity studies of conformationally restricted alpha-ketoamide factor Xa inhibitors” (Bioorg Med Chem Lett, 2000).

Tests used:
Prothrombin = Prothrombin (Homo sapiens, UniProt P00734); assay: Binding affinity for human thrombin
Coagulation factor X = Coagulation factor X (Homo sapiens, UniProt P00742); assay: Inhibition of Coagulation factor X
Sequence of Coagulation factor X (P00742 41-179 limits assumed): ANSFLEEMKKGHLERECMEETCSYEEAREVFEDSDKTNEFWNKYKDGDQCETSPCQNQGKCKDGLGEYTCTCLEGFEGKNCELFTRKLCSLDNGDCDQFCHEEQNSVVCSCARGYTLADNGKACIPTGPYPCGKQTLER
Sequence of Coagulation factor X (P00742 235-488 limits assumed): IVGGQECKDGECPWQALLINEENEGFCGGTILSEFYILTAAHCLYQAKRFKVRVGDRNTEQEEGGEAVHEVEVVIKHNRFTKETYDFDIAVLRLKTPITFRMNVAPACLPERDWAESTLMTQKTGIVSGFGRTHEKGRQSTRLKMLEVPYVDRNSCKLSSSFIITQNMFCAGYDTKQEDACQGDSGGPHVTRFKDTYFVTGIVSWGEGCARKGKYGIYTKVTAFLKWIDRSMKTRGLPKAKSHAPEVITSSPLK

| SMILES | Ki (Prothrombin) [nM] | Ki (Coagulation factor X) [nM] |
| --- | --- | --- |
| CN(CC(=O)N[C@@H](CCCCN)C(=O)C(=O)NCCN1CCOCC1)C(=O)c1ccccc1Sc1ccccc1C#N | 8700 | 200 |
| CN(CC(=O)N[C@@H](CCCCN)C(=O)C(=O)Nc1ccc(Oc2cccc(N)c2)cc1)C(=O)c1ccccc1Sc1ccccc1C#N | 59 | 120 |
| CN(CC(=O)N[C@@H](CCCCN)B(O)O)C(=O)c1ccccc1Sc1ccccc1 | 1.6 | 17 |
| CNC(=O)C(=O)[C@H](CCCCN)NC(=O)CN(C)C(=O)c1ccccc1Sc1ccccc1C#N | 570 | 110 |
| CN(CC(=O)N[C@@H](CCCCN)B(O)O)C(=O)c1ccccc1S(=O)(=O)c1ccccc1 | 97 | 5800 |
| CN(CC(=O)N[C@@H](CCCCN)C(=O)C(=O)Nc1ccccc1)C(=O)c1ccccc1Sc1ccccc1C#N | 60 | 54 |
| CN(CC(=O)N[C@@H](CCCCN)C(=O)C(=O)Nc1cccc(N)c1)C(=O)c1ccccc1Sc1ccccc1C#N | 120 | 120 |
| CN(CC(=O)N[C@@H](CCCCN)C(=O)C(=O)Nc1ccc(Oc2cccnc2)cc1)C(=O)c1ccccc1Sc1ccccc1C#N | 50 | 60 |

Second part, the compound after the results:

| Ki (Prothrombin) [nM] | Ki (Coagulation factor X) [nM] | SMILES |
| --- | --- | --- |
| 68 | 120 | CN(CC(=O)N[C@@H](CCCCN)C(=O)C(=O)Nc1ccc(Oc2ccc(N)cc2)cc1)C(=O)c1ccccc1Sc1ccccc1C#N |
| 7400 | 360 | CN(CC(=O)N[C@@H](CCCCN)C(=O)C(=O)NCc1ccccn1)C(=O)c1ccccc1Sc1ccccc1C#N |
| 8.8 | 1.1 | CN(CC(=O)N[C@@H](CCCCN)B(O)O)C(=O)c1ccccc1Sc1ccccc1C#N |
| 4.9 | 100 | CN(CC(=O)N[C@@H](CCCCN)B(O)O)C(=O)c1ccccc1Cc1ccccc1 |
